Columns and labels:
[1] = Pharmacokinetic experiment, oral capsules in Beagle dogs; assay type: in vivo; settings: dog, plasma, male Beagle dogs, 5 mg/kg
Protocol: The crystal form of the compound having Formula (I) was filled into capsules, which were used for oral administration.
Three male Beagle dogs weighing 8-12 kg were orally administered with capsules containing the test sample at a dose of 5 mg/kg, and blood samples were taken at time points of 0.25 h, 0.5 h, 1.0 h, 2.0 h, 4.0 h, 6.0 h, 8.0 h and 24 h. Standard curve was plotted based on concentrations of the samples in a suitable range, the concentration of the test sample in the plasma sample was measured and quantified by AB SCIEX API4000 LC-MS/MS at MRM mode. Pharmacokinetic parameters were calculated according to drug concentration-time curve using a noncompartmental method by WinNonLin 6.3 software.

[2] = Stability experiment (high-temperature, high-humidity, photostability); assay type: physicochemical
Protocol: (§1) (1) High-temperature test: A batch of the test sample was taken and put into a flat weighing bottle, divided into ≤5 mm thick thin layer. The sample was placed at 60° C. for 30 days. The sample was then sampled at day 5, day 13 and day 30, and the change of the sample's color was observed. The purity of the sample was detected by HPLC.
(2) High-humidity test: A batch of the test sample was taken and put into a flat weighing bottle, divided into ≤5 mm thick thin layer. The sample was placed at 25° C. and RH for 90%±5% for 30 days. The sample wad sampled at day 5, day 13 and day 30, and the change of the sample's color was observed. The purity of the sample was detected by HPLC.
as §1, with “(3) Photostability” for “(1) High-temperature”, “taken” for “taken and put”, “placed in an opened light box (with UV)” for “placed”, “the illuminance 4500+5001x, UV light ≥0.7w/m2” for “60° C.”

[3] = Hygroscopicity experiment (dynamic vapor sorption); assay type: physicochemical; settings: relative humidity of 80%, criterion of hygroscopic weight gain
Protocol: The description of the hygroscopic characteristics and the definition of the hygroscopic weight gain (Appendix 9103 of Chinese Pharmacopoeia 2020 Edition, Guidelines for Drug Hygroscopicity Tests, experimental conditions: 25° C.±1° C., 80%+2% relative humidity) are described in the table below:
The hygroscopicity of the present invention is measured using the DVS INT-Std dynamic moisture and gas adsorption analyzer of the Surface Measurement Systems Company in UK. The humidity test range was 0%-95%, the air flow was 200 mL/min, the temperature was 25° C., test point: take one test point per […] 5% humidity.
An appropriate amount of the test sample was taken and the hygroscopicity of the test sample was tested by dynamic moisture adsorption device. It can be seen from FIG. 4 that the weight gain of the crystal form J according to the present invention is more than 0.2% but less than 2% after equilibrium under the condition of a relative humidity of 80%. […] Therefore, the crystal form J of the invention is not susceptible to deliquescent under the influence of high humidity, which is convenient for the long-term storage of the medicine.

O=C(O)c1ccc2c(c1)Oc1ccc(OCc3c(-c4c(Cl)cccc4Cl)noc3C3CC3)nc1C1(CC1)C2 [crystal form J, 2-((5-cyclopropyl-3-(2,6-dichlorophenyl)isoxazol-4-yl)methoxy)-10H-spiro[benzo[6,7]oxepino[3,2-b]pyridine-11,1′-cyclopropane]-7-carboxylic acid]
AUC(0-t) [1]: 885 ng·h/mL | Cmax [1]: 554 ng/mL | Tmax [1]: 40 min | change in appearance and chemical purity (HPLC) ([2]; 60° C., 25° C. and RH 90%±5%, light box with UV, 30 days, sampled at day 5, 13, 30): no obvious changes in the appearance and chemical purity | crystal structure stability ([2]; high temperature, high humidity and/or lighting conditions): remains basically unchanged | hygroscopic characteristics [3]: lightly hygroscopic

Source: patent US20250268871A1, “NEW CRYSTAL FORM OF NITROGEN-CONTAINING TRICYCLIC COMPOUND AND USE THEREOF” (SUNSHINE LAKE PHARMA CO., LTD., priority 2021, published 2025)
